Test results reported in patent US20070060558A1 (PALUMED S.A., priority 2004, published 2007).
≈ marks a conversion by molar mass, not a printed value. Read-outs that look alike come from different tables or passages of the source. Starred links: 1 amine or outer side, 2 acyl side, 3 side chain; linkers in the order of their positions; H or OH if unused. Positions of bridges follow the written chain, without caps; N, C: chain ends. Non-standard residues stand in square brackets, D forms with d. Residues, ends and D or L forms follow the SMILES beside them. ξ: configuration not given here. *: point of attachment. X1 = O=C1C[C@@H](C(=O)[*:2])N([*:1])C[C@H]1CSCCNc1ccnc2cc(Cl)ccc12; NMePhe(4-NMe2) = CN[C@@H](Cc1ccc(N(C)C)cc1)C(=O)O; Pip(4-oxo) = O=C1CCN[C@H](C(=O)O)C1; Picolinoyl(3-OH) = O=C(c1ncccc1O)*; Phg = N[C@H](C(=O)O)c1ccccc1; ξPhg = NC(C(=O)O)c1ccccc1; dAbu = CC[C@@H](N)C(=O)O

How the values were obtained:
[1] = system: S. aureus MRSA clinical isolate; assay: Antibacterial activity (MIC); type: cell-based, Staphylococcus aureus
[2] = system: S. pneumoniae PSSP CQI 201; assay: Antibacterial activity (MIC); type: cell-based, Streptococcus pneumoniae
[3] = system: S. pyogenes CIP 56.41T; assay: Antibacterial activity (MIC/MBC); type: cell-based, Streptococcus pyogenes
[4] = system: Staphylococcus aureus MSSA CIP 4.83; assay: Antibacterial activity (MIC/MBC); type: cell-based; conditions: for MBC: read-out: MBC
[5] = system: E. coli CIP 54127; assay: Antibacterial activity (MIC); type: cell-based; conditions: Escherichia coli, CIP54127; E. coli CIP 54127; read-out: MIC
[6] = system: E. faecalis VRE CIP 104676; assay: Antibacterial activity (MIC/MBC); type: cell-based, Enterococcus faecalis; conditions: Enterococcus faecalis, E. faecalis VRE CIP 104676; for MIC: read-out: MIC
[7] = system: P. aeruginosa CIP 103467; assay: Antibacterial activity (MIC); type: cell-based; conditions: Pseudomonas aeruginosa, CIP103467; P. aeruginosa CIP 103467; read-out: MIC
[8] = system: B. thuringiensis CIP 104676; assay: Antibacterial activity (MIC); type: cell-based; conditions: Bacillus thuringiensis, CIP104676; B. thuringiensis CIP 104676; read-out: MIC
[9] = system: S. pneumoniae PRSP; assay: Antibacterial activity (MIC), Table VII; type: cell-based; conditions: Streptococcus pneumoniae; S. pneumoniae PRSP (Table VII); read-out: MIC
[10] = system: H. influenzae CIP 102514; assay: Antibacterial activity (MIC/MBC); type: cell-based, Haemophilus influenzae; conditions: Haemophilus influenzae, CIP102514
[11] = system: C. difficile CIP 104282; assay: Antibacterial activity (MIC); type: cell-based, Clostridium difficile; conditions: Clostridioides difficile, CIP104282
[12] = system: Staphylococcus aureus MSSA 53.154; assay: Murine experimental septicaemia, in vivo efficacy; parameters: species or system mice; conditions: sc
Protocol: Experimental septicaemia was induced in mice as follows. Briefly, male Swiss OF1 mice (IFFA CREDO-Charles River) weighing 18 to 20 grams were infected intraperitoneally with 0.5 mL of a bacterial suspension containing 8.5×10^7 cfu of Staphylococcus aureus MSSA 53.154 (Institut Pasteur). The hybrid molecules were administered subcutaneously at 1 and 6 h post infection. Control and treatment groups at each dose were composed of seven mice. All the infected but untreated control mice died within 9 days. The 50% effective dose (ED50) values were calculated by a computerized program (GraphPad) from the survival rates on day 9 after infection.

[13] = system: M. catarrhalis CIP73.21T; assay: Antibacterial activity (MIC/MBC); type: cell-based; conditions: Moraxella catarrhalis
[14] = system: S. pneumoniae PSSP CIP 6.92; assay: Antibacterial activity (MIC/MBC); type: cell-based; conditions: Streptococcus pneumoniae, CIP6
[15] = system: S. pneumoniae PRSP clinical isolate; assay: Antibacterial activity (MIC/MBC); type: cell-based, Streptococcus pneumoniae; conditions: Streptococcus pneumoniae; for MIC: PRSP, read-out: MIC
[16] = system: S. pneumoniae PRSP CIP 104471; assay: Antibacterial activity (MIC/MBC); type: cell-based, Streptococcus pneumoniae; conditions: Streptococcus pneumoniae; for MIC: read-out: MIC
[17] = system: E. faecium VRE VanA CIP107387; assay: Antibacterial activity (MIC); type: cell-based; conditions: Enterococcus faecium
[18] = system: S. epidermidis MSCNS (D10); assay: Antibacterial activity (MIC); type: cell-based; conditions: Staphylococcus epidermidis
[19] = system: S. epidermidis MRCNS (E93); assay: Antibacterial activity (MIC); type: cell-based; conditions: Staphylococcus epidermidis
[20] = system: S. aureus MsrA PUL 5054; assay: Antibacterial activity (MIC); type: cell-based; conditions: Staphylococcus aureus
[21] = system: E. faecalis VRE VanB CIP106998; assay: Antibacterial activity (MIC); type: cell-based; conditions: Enterococcus faecalis
[22] = system: S. aureus VISA CIP 106757; assay: Antibacterial activity (MIC); type: cell-based; conditions: Staphylococcus aureus
[23] = system: S. pneumoniae PRSP (CQR 162); assay: Antibacterial activity (MIC); type: cell-based; conditions: Streptococcus pneumoniae, PRSP
[24] = system: E. faecalis VRE VanA CIP106996; assay: Antibacterial activity (MIC); type: cell-based; conditions: Enterococcus faecalis
[25] = Staphylococcus aureus, S. aureus MSSA CIP 4.83, read-out: MIC
[26] = H. influenzae CIP 102514, read-out: MIC
[27] = Streptococcus pneumoniae, S. pneumoniae PSSP CQI 201, read-out: MIC
[28] = C. difficile CIP 104282, read-out: MIC
[29] = mice, subcutaneously at 1 and 6 h post infection, survival on day 9, hybrid molecules formulated in water as their sodium salt, read-out: ED50
[30] = Streptococcus pyogenes, CIP56, S. pyogenes CIP 56.41T
[31] = Streptococcus pyogenes, CIP56, S. pyogenes CIP 56.41T, read-out: MIC
[32] = Staphylococcus aureus, S. aureus MSSA CIP 4.83

CC[C@H]1NC(=O)[C@@H](NC(=O)c2ncccc2O)[C@@H](C)OC(=O)[C@H](c2ccccc2)NC(=O)[C@@H]2CC(=O)CCN2C(=O)[C@H](Cc2ccc(N(C)C)cc2)N(C)C(=O)[C@@H]2CCCN2C1=O [Pristinamycin IA, reference compound] ({Picolinoyl(3-OH)}-T[dAbu]P[NMePhe(4-NMe2)][Pip(4-oxo)][Phg]; ester 1-C)
MIC ([1]; S. aureus MRSA clinical isolate): 5 µg/mL (≈ 5.77 µM) | MIC ([2]; S. pneumoniae PSSP CQI 201): 0.31 µg/mL (≈ 0.358 µM) | MIC ([3]; S. pyogenes CIP 56.41T): 1.25 µg/mL (≈ 1.44 µM) | MIC ([4]; S. aureus MSSA CIP 4.83): 2.5 µg/mL (≈ 2.88 µM)

Cl.O=C(O)c1cn(C2CC2)c2cc(N3CCN(c4ccnc5cc(C(F)(F)F)ccc45)CC3)c(F)cc2c1=O [PA 1284, 1-Cyclopropopyl-6-fluoro-4-oxo-7-[4-(7-trifluoromethylquinolin-4-yl)-piperazin-1-yl]-1,4-dihydroquinoline-3-carboxylic acid hydrochloride salt]
MIC [5]: 1.25 µg/mL | MIC [6]: 0.625 µg/mL | MIC [4, 25]: 0.156 µg/mL | MIC [7]: > 5 µg/mL | MIC [8]: 0.625 µg/mL | MIC [9]: 0.039 µg/mL | MIC [10, 26]: 0.625 µg/mL

O=C(CCNc1ccnc2cc(Cl)ccc12)NC[C@H]1CN(c2ccc(N3CCOCC3)c(F)c2)C(=O)O1 [PA 1185, (5S)-3-(7-Chloroquinolin-4-ylamino)-N-[3-(3-fluoro-4-morpholin-4-yl-phenyl)-2-oxo-oxazolidin-5-ylmethyl]-propionamide]
MIC [2, 27]: 1.25 µg/mL (≈ 2.37 µM) | MIC [11, 28]: 0.16 µg/mL (≈ 0.303 µM)

CC(=O)OCC1=C(C(=O)O)N2C(=O)[C@@H](NC(=O)CNc3cc(C)nc4ccccc34)[C@H]2SC1 [PA 1101, (6R,7R-3-Acetoxymethyl-7-[2-2-methylquinolin-4-ylamino)acetylamino]-8-oxo-5-thia-1-aza-bicyclo[4.2.0]oct-2-ene-2-carboxylic acid]
ED50 [12, 29]: 0.13 mg/kg | MBC [13]: 0.78 µg/mL (≈ 1.66 µM) | MIC [13]: 0.78 µg/mL (≈ 1.66 µM) | MBC [3, 30]: 0.0015 µg/mL (≈ 0.00319 µM) | MIC [3, 31]: 0.0015 µg/mL (≈ 0.00319 µM) | MBC [6]: 25 µg/mL (≈ 53.1 µM) | MIC [6]: 25 µg/mL (≈ 53.1 µM) | MBC [4, 32]: 25 µg/mL (≈ 53.1 µM) | MIC [4, 25]: 0.2 µg/mL (≈ 0.425 µM) | MBC [14]: 0.006 µg/mL (≈ 0.0128 µM) | MIC [14]: 0.006 µg/mL (≈ 0.0128 µM) | MBC [15]: 0.39 µg/mL (≈ 0.829 µM) | MIC [15]: 0.2 µg/mL (≈ 0.425 µM) | MBC [16]: 0.78 µg/mL (≈ 1.66 µM) | MIC [16]: 0.2 µg/mL (≈ 0.425 µM) | MBC [10]: 12.5 µg/mL (≈ 26.6 µM) | MIC [10]: 1.56 µg/mL (≈ 3.32 µM)

CN[C@H](CC(C)C)C(=O)N[C@H]1C(=O)N[C@@H](CC(N)=O)C(=O)N[C@H]2C(=O)N[C@H]3C(=O)N[C@H](C(=O)N[C@H](C(=O)O)c4cc(O)cc(O)c4-c4cc3ccc4O)[C@H](O)c3ccc(c(Cl)c3)Oc3cc2cc(c3O[C@@H]2O[C@H](CO)[C@@H](O)[C@H](O)[C@H]2O[C@H]2C[C@](C)(N)[C@H](O)[C@H](C)O2)Oc2ccc(cc2Cl)[C@H]1O [Vancomycin, reference compound]
MIC ([1]; Staphylococcus aureus, MRSA): 0.78 µg/mL (≈ 0.538 µM) | ED50 [12]: 0.16 mg/kg | MIC ([2]; Streptococcus pneumoniae): 0.2 µg/mL (≈ 0.138 µM) | MIC ([3]; Streptococcus pyogenes, CIP56): 0.2 µg/mL (≈ 0.138 µM) | MIC [17]: > 50 µg/mL | MIC ([4]; Staphylococcus aureus): 0.78 µg/mL (≈ 0.538 µM) | MIC [18]: 1.56 µg/mL (≈ 1.08 µM) | MIC [19]: 0.78 µg/mL (≈ 0.538 µM) | MIC [11]: 0.31 µg/mL (≈ 0.214 µM) | MIC [20]: 0.75 µg/mL (≈ 0.518 µM) | MIC [21]: 25 µg/mL (≈ 17.3 µM) | MIC [22]: 1.56 µg/mL (≈ 1.08 µM) | MIC [23]: 0.39 µg/mL (≈ 0.269 µM) | MIC [24]: > 50 µg/mL

CC[C@H]1NC(=O)[C@@H](NC(=O)c2ncccc2O)[C@@H](C)OC(=O)C(c2ccccc2)NC(=O)[C@@H]2CC(=O)[C@H](CSCCNc3ccnc4cc(Cl)ccc34)CN2C(=O)[C@H](Cc2ccc(N(C)C)cc2)N(C)C(=O)[C@@H]2CCCN2C1=O (some centres unmarked) [PA 1182, 5δ-{1-[2-(7-Chloroquinolin-4-ylamino)-ethylamino]-methylsulfanyl}pristinamycin IA] ({Picolinoyl(3-OH)}-T[dAbu]P[NMePhe(4-NMe2)][X1][ξPhg]; ester 1-C)
MIC ([1]; Staphylococcus aureus, S. aureus MRSA clinical isolate, read-out: MIC): 1.25 µg/mL (≈ 1.12 µM) | MIC [2, 27]: 0.31 µg/mL (≈ 0.277 µM) | MIC [3, 31]: 0.32 µg/mL (≈ 0.286 µM) | MIC [4, 25]: 0.31 µg/mL (≈ 0.277 µM)

CC(=O)NC[C@H]1CN(c2ccc(N3CCOCC3)c(F)c2)C(=O)O1 [Linezolid, reference compound]
MIC [2, 27]: 1.25 µg/mL (≈ 3.71 µM) | MIC [11, 28]: 0.16 µg/mL (≈ 0.474 µM)

Cl.O=C(O)c1cn(C2CC2)c2cc(N3CCN(c4ccnc5c(Cl)cccc45)CC3)c(F)cc2c1=O [PA 1285, 7-[4-(8-Chloroquinolin-4-yl)-piperazin-1-yl]-1-cyclopropopyl-6-fluoro-4-oxo-1,4-dihydroquinoline-3-carboxylic acid hydrochloride salt]
MIC [5]: 0.625 µg/mL | MIC [6]: 0.156 µg/mL | MIC [4, 25]: 0.02 µg/mL | MIC [7]: > 5 µg/mL | MIC [8]: 0.156 µg/mL | MIC [9]: 0.039 µg/mL | MIC [10, 26]: 0.312 µg/mL

CC(=O)OCC1=C(C(=O)O)N2C(=O)[C@@H](NC(=O)CNc3ccnc4cc(C(F)(F)F)ccc34)[C@H]2SC1 [PA 1100, (6R,7R)-3-Acetoxymethyl-7-[2-(7-trifluoromethylquinolin-4-ylamino)-acetylamino]-8-oxo-5-thia-1-aza-bicyclo[4.2.0]oct-2-ene-2-carboxylic acid]
ED50 [12, 29]: 0.16 mg/kg | MBC [13]: 1.56 µg/mL (≈ 2.97 µM) | MIC [13]: 0.78 µg/mL (≈ 1.49 µM) | MBC [3, 30]: 0.003 µg/mL (≈ 0.00572 µM) | MIC [3, 31]: 0.003 µg/mL (≈ 0.00572 µM) | MBC [6]: 25 µg/mL (≈ 47.7 µM) | MIC [6]: 12.5 µg/mL (≈ 23.8 µM) | MBC [4, 32]: 25 µg/mL (≈ 47.7 µM) | MIC [4, 25]: 0.2 µg/mL (≈ 0.381 µM) | MBC [14]: 0.006 µg/mL (≈ 0.0114 µM) | MIC [14]: 0.006 µg/mL (≈ 0.0114 µM) | MBC [15]: 0.39 µg/mL (≈ 0.744 µM) | MIC [15]: 0.39 µg/mL (≈ 0.744 µM) | MBC [16]: 0.78 µg/mL (≈ 1.49 µM) | MIC [16]: 0.2 µg/mL (≈ 0.381 µM) | MBC [10]: 25 µg/mL (≈ 47.7 µM) | MIC [10]: 0.78 µg/mL (≈ 1.49 µM)
